US20010006673A1, “LUTEIN- CONTAINING SUPPLEMENT AND PROCESS FOR ENHANCING IMMUNE RESPONSE IN ANIMALS” (priority 1998, published 2001)

Key:
[1] = parameters: species or system Beagle dogs; details: dog, in vivo
Experimental: (§1) Fifty six female Beagle dogs (17 to 18 months old; average body weight 11.4±0.4 kg) were randomly assigned to be supplemented daily with 0, 5, 10 or 20 mg lutein for 17 weeks. The lutein contained 76.66% lutein and 5.23% zeaxanthin. The lutein supplement was resuspended in soybean oil to the appropriate concentration and 1 mL administered perorally at 0800 h daily. Food (200 g/dog/d) was offered immediately after the lutein supplementation. The basal diet shown in Table 1 below met or exceeded the requirements for all essential nutrients (NRC 1985).
All dogs were housed in 2×2 m pens (2 dogs/pen) in a temperature (20 to 22° C.) and light (14 h light) controlled facility. Body weight was recorded at weeks 0, 6, and 12.

[2] = Plasma extraction and HPLC analysis in dogs (lutein+zeaxanthin, retinol, α-tocopherol); format: in vivo, Beagle dogs
Experimental: as §1
Blood was collected by jugular venipuncture into heparinized evacuated tubes on weeks 0, 2, 4, 8 and 12 and aliquots used for HPLC analysis and for assessing immune responses.
Plasma was extracted for analysis of lutein, zeaxanthin, retinol and α-tocopherol. Briefly, plasma protein was precipitated by adding an equal volume of ethanol containing 0.1% butylated hydroxytoluene (BHT) (Aldrich Chemical Co., Milwaukee, Wis.). The mixture was extracted with 5 mL of a 1:1 mixture of petroleum ether:anhydrous diethyl ether.
The dried residue was resuspended in mobile phase consisting of a 47:47:6 (v:v:v) mixture of HPLC-grade acetonitrile: methanol: chloroform (Fisher Scientific, Fair Lawn, N.J.). Lutein, zeaxanthin and α-tocopherol were quantitated by comparing the area under the curve whereas retinol was quantitated using peak height. The identity of the eluted compounds was confirmed by comparing their absorption spectrum with that of pure standards. Because baseline separation of lutein and zeaxanthin was not accomplished, plasma concentrations were reported as lutein+zeaxanthin.

[3] = system: Canine thyroid adenocarcinoma cells; test: NK cell cytotoxicity, dogs; format: in vivo, Beagle dogs
Experimental: Canine thyroid adenocarcinoma cells were used as target cells in assessing NK cell cytotoxic activity. This cell line was previously shown to be susceptible to killing by canine NK cell. Target cells were cultured in a T75 flask with 20 mL minimum essential medium (MEM; Sigma Chem. Co., St. Louis, Mo.) supplemented with 10% fetal calf serum (FC S), 100 U/mL of penicillin and 100 μg/mL of streptomycin. When confluent, target cells were trypsinized, washed 3 times and resuspended to 5×10^5 cells/mL in complete medium (RPMI-1640+10% FCS+100 U/mL of penicillin+100 μ/mL of streptomycin). Triplicate 100 μL aliquots of the target cells were pipetted into 96-well U-bottom plates (Costar, Cambridge, Mass.) and incubated for 8 hours to allow cell adherence. Lymphocytes (effector cells; 100 μL) isolated by percoll separation (as described above) were then added to the target cells to provide an effector:target cell (E:T) ratio of 10:1. After 10 hours of incubation at 37° C., 20 μl of a substrate containing 5 μg of 3-(4,5-dimethylthiazol-2-yl)-2,5-diphenyltetrazolium bromide (MTT) was added. […] Optical density was measured at 570 nm using a microplate reader. The percentage of NK cell-specific lysis was calculated as follows: Specific cytotoxicity (%)=100×{1−[(OD of target cells and effector cells−OD of effector cells)/(OD of target cells)]}

[4] = system: peripheral blood mononuclear cells (PBMC); test: Peripheral blood mononuclear cell proliferation, whole blood, cats; format: in vivo, Tabby cats
Experimental: Whole blood was used to analyze the mitogenic proliferative responsiveness of peripheral blood mononuclear cells (PBMC) to phytohemagglutinin (PHA), Con A and pokeweed mitogen (PWM) in order to mimic in vivo conditions. Heparinized whole blood was diluted 1:12 with RPMI-1640 containing 25 mM of Hepes, penicillin (100 U/mL) and streptomycin (100 μg/mL) (Sigma, St. Louis, Mo.) (hereafter termed complete medium). […] The mitogens were used at the following final concentrations previously determined to provide both maximal (the higher mitogen concentration) and suboptimal (the lower mitogen concentration) proliferation: PHA (1.25 and 0.25 μg/mL), Con A (2.5 and 0.5 μg/mL) or PWM (0.125 and 0.025 μg/mL). Tritiated thymidine uptake was measured by liquid scintillation and PBMC proliferation response was expressed as cpm of stimulated cultures corrected for cpm of unstimulated cultures.

malondialdehyde = test: Lipid peroxidation (TBARS), cat plasma; format: in vivo, Tabby cats; details: cats
Experimental: Lipid peroxidation was assessed by the TBARS (thiobarbituric acid-reactive substances) assay on plasma collected on weeks 0, 2, 4, 8 and 12. Duplicate 500 μL of cat plasma was boiled for 45 minutes with 3 mL of phosphoric acid (10 g/L) and 1 mL of TBA (6 g/L). After cooling, the TBA-MDA (malondialdehyde) complex was extracted with 4 mL of n-butanol. The butanol layer was separated by centrifugation (1,000×g for 10 minutes) and absorbance read (Beckman, Fullerton, Calif.) at 532 nm. […] Louis, Mo.).

CC1=C[C@H](O)CC(C)(C)[C@H]1/C=C/C(C)=C/C=C/C(C)=C/C=C/C=C(C)/C=C/C=C(C)/C=C/C1=C(C)C[C@@H](O)CC1(C)C [lutein]
Body weight average [1]: 11.4 ± 0.4 kg
Effect on changes in body weight [1]: did not significantly affect
Plasma concentrations of lutein+zeaxanthin ([2]; dogs fed 10 and 20 mg lutein, after week 2, more gradually): continued to increase
Plasma lutein+zeaxanthin vs unsupplemented animals ([2]; dogs, weeks 2 through 12, P<0.05): significantly higher
Plasma concentrations of lutein+zeaxanthin ([2]; lutein-supplemented dogs, after 2 weeks of feeding): increased rapidly
Effect on NK cell cytotoxic activity [3]: did not significantly influence
Specific lysis of target cells by PBMC, average ([3]; across all treatments and sampling periods, E:T 10:1): 49.1±1.1%
Spontaneous proliferation by unstimulated PBMC ([4]; cats): did not significantly influence
PWM-stimulated PBMC proliferation (increased) ([4]; cats fed 1 mg lutein, week 4, 0.025 μg/mL PWM): differences were significant
PBMC proliferative response to Con A ([4]; cats fed 10 mg lutein, Con A 2.5 μg/mL, week 4): significantly higher
PWM-stimulated PBMC proliferation (increased) ([4]; cats fed 1 and 10 mg lutein, week 4, 0.125 μg/mL PWM): differences were significant
Tritiated thymidine uptake, average ([4]; cats, 0.25 μg/mL PHA): 1,934±147 cpm
Tritiated thymidine uptake, average ([4]; cats, 1.25 μg/mL PHA): 6,464±504 cpm
PBMC proliferative response to Con A ([4]; cats, Con A 2.5 μg/mL, week 8 and 12): treatment differences were not observed
PBMC proliferative response to Con A ([4]; cats, suboptimal dose (0.5 μg/mL) of Con A): No significant treatment difference
PHA-induced PBMC proliferation ([4]; cats, throughout the study): no significant dietary effects
Spontaneous proliferation by unstimulated PBMC, average ([4]; cats, throughout the study): 1,744±147 cpm
Effect on plasma TBARS activity (malondialdehyde): did not significantly influence
Plasma TBARS, average (malondialdehyde; across all diet groups and periods): 20.3±0.2 nmol MDA/L
